# Laboratory results published in US8026218B2, “Bifunctional analgesic compounds for opioid receptor agonists and neurokinin-1 receptor antagonists” (The University of Arizona, priority 2006, dated 2011).
# Like-named read-outs stand apart in the source and are kept apart here.
# How the values were obtained:
# rat NK1 (rNK1) receptor = biological target: T1, rat NK1 (rNK1) receptor (Rattus norvegicus, UniProt P14600); assay: Radioligand competition binding, [3H]substance P, rNK1/CHO membranes; conditions: for IC50: LogIC50, rNK1, [3H]Substance P, Table 6, logarithm of IC50 (negative), CHO cell membranes
# T1 construct: expressed in transfected cells; host or cells: CHO (rNK-1/CHO cell line from Dr. James Krause)
# T1 sequence (P14600 whole entry): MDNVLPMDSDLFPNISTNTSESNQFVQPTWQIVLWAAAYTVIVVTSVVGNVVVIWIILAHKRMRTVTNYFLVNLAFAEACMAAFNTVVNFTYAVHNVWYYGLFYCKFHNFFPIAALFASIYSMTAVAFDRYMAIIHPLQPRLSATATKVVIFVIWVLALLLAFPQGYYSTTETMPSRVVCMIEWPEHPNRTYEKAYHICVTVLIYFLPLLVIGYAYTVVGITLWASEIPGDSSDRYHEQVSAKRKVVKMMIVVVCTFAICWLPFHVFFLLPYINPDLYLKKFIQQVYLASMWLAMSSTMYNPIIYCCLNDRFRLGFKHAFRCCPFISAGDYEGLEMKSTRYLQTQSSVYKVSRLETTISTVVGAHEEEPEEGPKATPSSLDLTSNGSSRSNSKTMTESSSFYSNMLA
# [1] = biological target: T2, human NK1 receptor (hNK1) (Homo sapiens, UniProt P25103); assay: Radioligand competition binding, [3H]-Substance P, hNK1
# T2 construct: expressed in transfected cells
# T2 sequence (P25103 whole entry): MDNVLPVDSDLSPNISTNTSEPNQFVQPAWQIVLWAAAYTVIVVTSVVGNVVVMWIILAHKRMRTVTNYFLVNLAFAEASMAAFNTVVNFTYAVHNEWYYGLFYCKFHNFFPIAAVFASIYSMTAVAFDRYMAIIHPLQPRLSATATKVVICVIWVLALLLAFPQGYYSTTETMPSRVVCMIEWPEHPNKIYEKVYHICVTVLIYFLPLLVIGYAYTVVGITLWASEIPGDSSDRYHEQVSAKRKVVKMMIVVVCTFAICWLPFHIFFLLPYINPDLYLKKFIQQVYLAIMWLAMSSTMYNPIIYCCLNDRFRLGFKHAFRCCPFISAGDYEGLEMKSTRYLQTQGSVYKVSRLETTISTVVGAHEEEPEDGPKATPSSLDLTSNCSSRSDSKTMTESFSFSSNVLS
# [2] = biological target: T3, Substance P receptors (guinea pig NK1) (Cavia porcellus, UniProt P30547); assay: Guinea pig isolated ileum (GPI) assay with substance P stimulation in presence of 1 μM naloxone
# T3 construct: from tissue; host or cells: guinea pig (Hartley) ileum LMMP, 1 μM naloxone present
# T3 sequence (P30547 whole entry): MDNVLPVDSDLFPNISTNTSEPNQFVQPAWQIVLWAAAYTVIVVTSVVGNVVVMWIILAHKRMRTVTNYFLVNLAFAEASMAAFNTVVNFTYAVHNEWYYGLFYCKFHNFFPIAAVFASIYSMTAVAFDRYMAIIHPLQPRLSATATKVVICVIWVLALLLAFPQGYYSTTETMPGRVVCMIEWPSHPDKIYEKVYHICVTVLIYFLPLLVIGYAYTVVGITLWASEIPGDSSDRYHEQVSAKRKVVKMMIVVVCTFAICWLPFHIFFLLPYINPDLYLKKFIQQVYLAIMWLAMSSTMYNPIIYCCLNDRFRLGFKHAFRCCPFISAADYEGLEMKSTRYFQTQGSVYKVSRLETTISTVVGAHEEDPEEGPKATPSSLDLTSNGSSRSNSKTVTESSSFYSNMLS
# Description: Testing stopped at 1 mM concentrations of the test compound.
# Analysis of GPI and MVD assays. For opioid data analysis, percentage inhibition was calculated using the average tissue contraction height for 1 min preceding the addition of the agonist divided by the contraction height 3 min after exposure to the dose of agonist. […] IC50 and Emax estimates were determined by computerized nonlinear least-squares analysis (the pharmacological statistics package FlashCalc: Dr. Michael Ossipov, University of Arizona, Tucson, Ariz.). […] A50 values represent the mean of not less than 4 tissues. A50 and Emax estimates were determined by computerized nonlinear least-squares analysis (FlashCalc).
# [3] = Octanol/saline distribution (logD7.4); assay type: physicochemical
# Description: HEPES buffer (0.05 M HEPES buffer in 0.1 M NaCl, pH 7.4, 500 μL) was added to 2 mg of compound and mixed with 500 μL of 1-octanol. The sample was shaken at r.t. for 12 h to allow equilibrating. The sample was centrifuged at 6500 rpm in a VanGuard V6500 (GlaxoSmithKline, Research Triangle Park, N.C.) for 15 min. The layers were separated and each layer was centrifuged once again. The compound concentrations of obtained layers were analyzed by HPLC (30-70% of acetonitrile containing 0.1% TFA within 20 min and up to 95% within additional 5 min, 1 mL/min, 230 nm, Vydac 218TP104 C-18 column). The logarithm of 1-octanol/saline distribution (logD7.4) was calculated as the ratio of compound concentration in the 1-octanol and saline phases.
# Octanol/saline distribution (logD7.4) (Yamamoto, 2007, J. Med. Chem., submitted). HEPES buffer (0.05 M HEPES buffer in 0.1 M NaCl, pH 7.4, 500 μL) was added to 2 mg of compound and mixed with 500 μL of 1-octanol. The sample was shaken at r.t. for 12 h to allow equilibrating. The sample was centrifuged at 6500 rpm in a VanGuard V6500 (GlaxoSmithKline, Research Triangle Park, N.C.) for 15 min. The layers were separated and each layer was centrifuged once again. The compound concentrations in the obtained layers were analyzed by HPLC (30-70% of acetonitrile containing 0.1% TFA within 20 min and up to 95% within additional 5 min, 1 mL/min, 230 nm, Vydac 218TP104 C-18 column). The logarithm of 1-octanol/saline distribution (logD7.4) was calculated as the ratio of compound concentration in the 1-octanol and saline phases.
# δ opioid receptors (MVD) = biological target: T4, δ opioid receptors (MVD) (Mus musculus, UniProt P32300); assay: Mouse isolated vas deferens (MVD) assay, opioid agonist
# T4 construct: from tissue; host or cells: mouse (ICR) isolated vas deferens
# T4 sequence (P32300 whole entry): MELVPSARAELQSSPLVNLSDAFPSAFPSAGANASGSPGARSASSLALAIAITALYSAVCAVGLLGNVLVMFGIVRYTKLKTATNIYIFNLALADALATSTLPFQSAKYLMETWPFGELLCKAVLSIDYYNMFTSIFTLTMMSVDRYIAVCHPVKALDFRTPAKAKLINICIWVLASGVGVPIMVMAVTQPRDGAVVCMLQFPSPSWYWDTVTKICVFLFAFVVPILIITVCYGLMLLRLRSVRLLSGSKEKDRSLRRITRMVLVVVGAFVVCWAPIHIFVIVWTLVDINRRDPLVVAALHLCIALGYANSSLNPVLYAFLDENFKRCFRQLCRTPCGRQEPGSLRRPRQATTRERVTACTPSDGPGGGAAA
# μ opioid receptors (GPI) = assay: Guinea pig isolated ileum (GPI) assay, opioid agonist;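 note: inhibition of electrically evoked contractions (0.1 Hz, 0.4 msec, supramaximal voltage) in organ baths at 37 °C, contraction height 3 min after each cumulative dose versus the 1 min before dosing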
# [4] = Solubility in HEPES buffer; assay type: physicochemical
# Description: Solubility. HEPES buffer (0.05 M HEPES buffer in 0.1 M NaCl, pH 7.4, 500 μL) was added to 1 mg of compound. The sample was vortexed for 30 sec, sonicated for 5 min, shaken at r.t. for 2 h, and then allowed to be stayed overnight to equilibration. The sample was filtrated with an Acrodisc Syringe Filter (13 mm, 0.45 μm pore, PTFE membrane, Pall Life Sciences, East Hills, N.Y.).
# [5] = biological target: T5, human δ opioid receptors (hDOR) (Homo sapiens, UniProt P41143); assay: [35S]GTP-γ-S binding assay, hDOR; assay type: biochemical
# T5 construct: expressed in transfected cells; host or cells: HN9.10 neuroblastoma cell line, pCDNA3, neomycin-selected clones
# T5 sequence (P41143 whole entry): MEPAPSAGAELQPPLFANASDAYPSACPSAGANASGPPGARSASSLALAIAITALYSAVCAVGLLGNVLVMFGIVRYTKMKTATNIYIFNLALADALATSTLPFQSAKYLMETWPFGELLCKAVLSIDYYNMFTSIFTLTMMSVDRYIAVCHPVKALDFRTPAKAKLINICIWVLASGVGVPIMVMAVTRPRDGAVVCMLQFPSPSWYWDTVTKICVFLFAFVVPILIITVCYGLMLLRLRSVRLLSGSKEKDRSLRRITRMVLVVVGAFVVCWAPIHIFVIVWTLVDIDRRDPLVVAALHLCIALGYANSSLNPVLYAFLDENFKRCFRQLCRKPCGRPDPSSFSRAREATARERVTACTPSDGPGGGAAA
# [6] = biological target: T6, rat μ opioid receptors (rMOR) (Rattus norvegicus, UniProt P33535); assay: biochemical; assay type: biochemical
# T6 construct: expressed in transfected cells; host or cells: HN9.10 neuroblastoma cell line, pCDNA3, neomycin-selected clones
# T6 sequence (P33535 whole entry): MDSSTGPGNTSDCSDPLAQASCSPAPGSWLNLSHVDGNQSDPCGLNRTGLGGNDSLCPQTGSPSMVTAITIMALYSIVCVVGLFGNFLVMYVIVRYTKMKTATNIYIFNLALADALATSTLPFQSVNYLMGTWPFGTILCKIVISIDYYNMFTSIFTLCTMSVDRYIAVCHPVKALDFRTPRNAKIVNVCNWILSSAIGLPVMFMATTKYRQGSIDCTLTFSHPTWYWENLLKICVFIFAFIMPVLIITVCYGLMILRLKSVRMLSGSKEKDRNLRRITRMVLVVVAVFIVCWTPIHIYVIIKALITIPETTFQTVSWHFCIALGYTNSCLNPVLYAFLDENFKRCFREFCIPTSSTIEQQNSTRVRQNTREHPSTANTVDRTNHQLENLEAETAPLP
# [7] = biological target: T6, rat μ opioid receptors (rMOR); assay: Radioligand competition binding, [3H]DAMGO, rMOR membranes
# MOR = MOR (Homo sapiens, UniProt P35372); conditions: previous studies; read-out: Affinity (Ki in nM), MOR; cited from earlier work
# Chain of MOR (P35372 whole entry): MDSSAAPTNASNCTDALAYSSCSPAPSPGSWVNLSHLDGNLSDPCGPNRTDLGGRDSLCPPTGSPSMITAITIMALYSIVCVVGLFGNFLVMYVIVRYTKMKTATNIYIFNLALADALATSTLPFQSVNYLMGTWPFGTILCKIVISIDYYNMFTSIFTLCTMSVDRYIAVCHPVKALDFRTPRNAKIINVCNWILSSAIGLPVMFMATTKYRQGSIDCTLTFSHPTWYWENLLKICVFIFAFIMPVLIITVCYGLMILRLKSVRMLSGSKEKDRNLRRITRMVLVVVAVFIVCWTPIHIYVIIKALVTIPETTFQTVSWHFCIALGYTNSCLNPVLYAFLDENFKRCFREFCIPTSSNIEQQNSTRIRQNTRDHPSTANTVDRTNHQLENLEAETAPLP
# rNK1 = rNK1 (Rattus norvegicus, UniProt P14600); conditions: previous studies; read-out: Affinity (Ki in nM), rNK1; cited from earlier work
# Chain of rNK1 (P14600 whole entry): as the sequence (P14600 whole entry) above
# [8] = Table 39, read-out: Affinity hNK1 (Ki; nM)
# [9] = read-out: Ki (nM), hNK1, [3H]Substance P, Table 6, CHO cell membranes
# [10] = 0.05 N HEPES buffer in 0.1 N NaCl
# [11] = Table 39, read-out: GPI/LMMP opioid(mu) agonist (IC50; nM)
# [12] = read-out: GTP binding hDOR Emax
# [13] = read-out: GTP binding hDOR Emax (%)
# [14] = Table 24, read-out: GTP binding rMOR Emax (%)
# [15] = Table 39, read-out: GTP binding rMOR Emax
# [16] = GPI/LMMP SP Antagonist (Ke; nM), Table 24
compound,measurement,setting,value
"CC(C)C[C@H](NC(=O)[C@@H]1CCCN1C(=O)[C@H](Cc1ccccc1)NC(=O)CNC(=O)[C@@H](C)NC(=O)[C@@H](N)Cc1ccc(O)cc1)C(=O)N[C@@H](Cc1c[nH]c2ccccc12)C(=O)NCc1ccccc1 [TY008, H-Tyr-DAla-Gly-Phe-Pro-Leu-Trp-NH-Bzl]",inhibition at 1 µM,"rat NK1 (rNK1) receptor; read-out: Inhibition % at 1 μM, rNK1, [3H]Substance P",30 ± 9.9%
same,inhibition at 1 µM,rat NK1 (rNK1) receptor; read-out: inhibition at rNK1 receptor,30%
same,IC50,[1],31.6 nM
same,Ki,[1]; [8],14 nM
same,Ki,[1]; [9],14 nM
same,Ki,"[1]; read-out: Ki, hNK1",14 nM
same,species difference between the guinea pig and the rat (NK1),[2]; GPI Ke vs rNK1 affinity,more than 40 fold
same,Kb,"[2]; Substance P antagonist, GPI, Ke, in the presence of 1 μM naloxone",26 ± 3.9 nM
same,logD7.4,[3]; [10],3.3
"CC(C)C[C@H](NC(=O)[C@@H]1CCCN1C(=O)[C@H](Cc1ccccc1)NC(=O)CNC(=O)[C@@H](C)NC(=O)[C@@H](N)Cc1ccc(O)cc1)C(=O)N[C@@H](Cc1c[nH]c2ccccc12)C(=O)NCc1cc(C(F)(F)F)cc(C(F)(F)F)c1 [TY012, H-Tyr-D-Ala-Gly-Phe-Pro-Leu-Trp-NH-3,5-Bzl(CF3)2]",IC50,rat NK1 (rNK1) receptor,100 nM
same,IC50,[1],1.26 nM
same,logD7.4,[3]; [10],>4
"CC(C)C[C@H](NC(=O)[C@@H]1CCCN1C(=O)[C@H](Cc1ccccc1)NC(=O)CNC(=O)[C@@H](C)NC(=O)[C@@H](N)Cc1ccc(O)cc1)C(=O)N[C@@H](Cc1c[nH]c2ccccc12)C(=O)N(C)Cc1cc(C(F)(F)F)cc(C(F)(F)F)c1 [TY013, H-Tyr-D-Ala-Gly-Phe-Pro-Leu-Trp-NMe-3,5-Bzl(CF3)2]",IC50,rat NK1 (rNK1) receptor,20 nM
same,IC50,[1],3.16 nM
same,Ki,[1],6.1 nM
same,Ki,[1]; [8],1.4 nM
same,Ki,[1]; [9],1.4 nM
same,logD7.4,[3]; [10],>4
"CSCC[C@H](NC(=O)[C@H](Cc1ccccc1)NC(=O)CNC(=O)[C@@H](C)NC(=O)[C@@H](N)Cc1ccc(O)cc1)C(=O)N1CCC[C@H]1C(=O)N[C@@H](CC(C)C)C(=O)N[C@@H](Cc1c[nH]c2ccccc12)C(=O)NCc1cc(C(F)(F)F)cc(C(F)(F)F)c1 [TY027, H-Tyr-D-Ala-Gly-Phe-Met-Pro-Leu-Trp-NH-3,5-Bzl(CF3)2]",Ki,"rat NK1 (rNK1) receptor; Table 29, read-out: Affinity rNK1 (Ki; nM)",7.27 nM
same,species difference between affinities at rNK1 and hNK1,[1]; Ki rNK1 vs Ki hNK1,1100 fold
same,IC50,δ opioid receptors (MVD),14.5 nM
same,IC50,"μ opioid receptors (GPI); Table 16, electrically stimulated isolated tissue, read-out: Opioid agonist GPI (μ), IC50",490 ± 29 nM
same,IC50,"μ opioid receptors (GPI); Table 22, electrically stimulated isolated tissue, read-out: Opioid agonist GPI (μ), IC50",490 ± 29 nM
same,IC50,"μ opioid receptors (GPI); Table 30, read-out: GPI/LMMP Opioid(m) Agonist (IC50; nM)",488 nM
same,IC50,μ opioid receptors (GPI); [11],488 nM
same,IC50,"μ opioid receptors (GPI); electrically stimulated isolated tissue, read-out: GPI (μ), IC50",490 nM
same,Kb,"[2]; Substance P antagonist, GPI, Ke (nM), Table 16, in the presence of 1 μM naloxone",10 ± 2.1 nM
same,logD7.4,[3]; [10],>4.0
same,solubility,"[4]; pH 7.4, 0.05 N HEPES buffer in 0.1 N NaCl solution",< 0.2 µg/mL
CCCC[C@H](NC(=O)[C@H](Cc1ccccc1)NC(=O)CNC(=O)[C@@H](C)NC(=O)[C@@H](N)Cc1ccc(O)cc1)C(=O)N1CCC[C@H]1C(=O)NC(COC1OC(CO)C(O)C(O)C1O)C(=O)N[C@@H](Cc1c[nH]c2ccccc12)C(=O)NCc1cc(C(F)(F)F)cc(C(F)(F)F)c1 (some centres unmarked) [TY041],Emax,[5]; [12],62%
same,Emax,[5]; [13],62%
same,Emax,[6]; [14],42%
same,Emax,[6]; [15],42%
same,solubility,"[4]; Table 26, HEPES buffer pH 7.4",< 1 µg/mL
CC(C)C[C@H](NC(=O)[C@@H]1CCCN1C(=O)C(COC1OC(CO)C(O)C(O)C1O)NC(=O)[C@H](Cc1ccccc1)NC(=O)CNC(=O)[C@@H](C)NC(=O)[C@@H](N)Cc1ccc(O)cc1)C(=O)N[C@@H](Cc1c[nH]c2ccccc12)C(=O)NCc1cc(C(F)(F)F)cc(C(F)(F)F)c1 (some centres unmarked) [TY042],Emax,[5]; [12],47%
same,Emax,[5]; [13],47%
same,Emax,[6]; [14],28%
same,Emax,[6]; [15],28%
same,GPI/LMMP SP Agonist (IC50; nM),"[2]; Table 39, at 10 nM",none
same,solubility,"[4]; Table 26, HEPES buffer pH 7.4",1.4 µg/mL
CCCC[C@H](NC(=O)[C@H](Cc1ccccc1)NC(=O)CNC(=O)[C@@H](C)NC(=O)[C@@H](N)Cc1ccc(O)cc1)C(=O)N[C@@H](COC1O[C@H](CO)[C@@H](O)[C@H](O)[C@H]1O)C(=O)N[C@@H](CC(C)C)C(=O)N[C@@H](Cc1c[nH]c2ccccc12)C(=O)NCc1cc(C(F)(F)F)cc(C(F)(F)F)c1 (some centres unmarked) [TY044],Ki,[7],3370 nM
same,Ki,[1],1.3 nM
same,EC50,[6]; GTP binding rMOR EC50 (nM),380 nM
same,Emax,[6]; read-out: GTP binding rMOR Emax,85%
same,Emax,[6]; read-out: GTP binding rMOR Emax (%),85%
same,IC50,δ opioid receptors (MVD),18 nM
same,Kb,[2]; [16],18.4 nM
same,solubility thermodynamic,"[4]; Table 26, HEPES buffer pH 7.4",< 1 µg/mL
CCCC[C@H](NC(=O)[C@H](Cc1ccccc1)NC(=O)CNC(=O)[C@@H](C)NC(=O)[C@@H](N)Cc1ccc(O)cc1)C(=O)N1CCC[C@H]1C(=O)N[C@@H](CC(C)C)C(=O)N[C@@H](Cc1c[nH]c2ccccc12)C(=O)NCc1cc(C(F)(F)F)cc(C(F)(F)F)c1 [TY045],Emax,"[5]; Table 24, read-out: GTP binding hDOR Emax (%)",125%
same,Emax,"[5]; Table 39, read-out: GTP binding hDOR Emax",125%
same,IC50,δ opioid receptors (MVD),13.6 nM
same,IC50,"μ opioid receptors (GPI); Table 24, read-out: GPI/LMMP Opioid (μ) Agonist (IC50; nM)",463 nM
same,IC50,μ opioid receptors (GPI); [11],463 nM
same,Kb,[2]; [16],40.8 nM
same,logD7.4,"[3]; Table 26, pH 7.4",>3.0
same,solubility,"[4]; Table 26, HEPES buffer pH 7.4",< 1 µg/mL
HTyrDAlaGlyPheNHNHTrpCbz [AA501],Ki,MOR,80 nM
same,Ki,rNK1,5000 nM
HTyrProPhePheGlyLeuMetNH2 (H-YPFFGLM-NH2) [ESP7],Ki,MOR,218 nM
same,Ki,rNK1,289 nM
HTyrProPhePheProLeuMetNH2 (H-YPFFPLM-NH2) [ESP6],Ki,MOR,92 nM
same,Ki,rNK1,305 nM
